Measured values from patent publication US10442804B2, “Compounds for the treatment of hepatitis B virus infection” (Gilead Sciences, Inc., priority 2017, dated 2019).
Where two headings read alike, the source gives them in different places.

What was measured:
[1] = system: HBV-infected NTCP-HepG2 cells, secreted HBsAg; assay: microbe, parasite or virus in culture; assay type: cell-based, hepatitis B virus (genotype D, AD38-derived); settings: Hepatitis B virus, 120 h, read-out: NTCP HBsAg EC50
How it was run: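 NTCP-HepG2 cells were infected with genotype D HBV at 4000 genome equivalents/cell, then seeded 4 days post-infection with serially diluted compounds (1% DMSO) for 5 days. Supernatant HBsAg was measured by chemiluminescent MSD immunoassay. EC50 from four-parameter fit, geometric mean of ≥4 determinations.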

MT-4 cytotoxicity assay = assay type: cell-based, human; settings: human
[2] = secreted HBsAg in supernatant after 5 days, geometric mean of minimum four determinations
[3] = five days, Cell Titer Glo luminescence, read-out: MT-4 CC50

Row | Compound | EC50 [1, 2] [nM] | CC50 at 5 days (MT-4 cytotoxicity assay; [3]) [nM] | CC50 at 5 days (MT-4 cytotoxicity assay; MT-4 CC50) [nM] | EC50 [1] [nM]
1 | COCCCOc1cc2c(cc1Cl)-c1cc(=O)c(C(=O)O)cn1N1[C@@H]2CC1(C)C [Example 46, (R)-10-chloro-11-(3-methoxypropoxy)-2,2-dimethyl-7-oxo-1,2,7,12b-tetrahydroazeto[2,1-a]pyrido[1,2-c]phthalazine-6-carboxylic acid and (S)-10-chloro-1-(3-methoxypropoxy)-2,2-dimethyl-7-oxo-1,2,7,12b-tetrahydroazeto[2,1-a]pyrido[1,2-c]phthalazine-6-carboxylic acid] | 7.8 | > 10000 |  | 
2 | CC1(COc2cc3c(cc2Cl)-c2cc(=O)c(C(=O)O)cn2N2[C@@H]3CCC2(C)C)COC1 [Example 49, (R)-11-chloro-3,3-dimethyl-12-((3-methyloxetan-3-yl)methoxy)-8-oxo-2,3,8,13b-tetrahydro-1H-pyrido[2,1-a]pyrrolo[1,2-c]phthalazine-7-carboxylic acid] | 3.8 | > 10000 |  | 
3 | COc1cc2c(cc1OCC1CC(F)(F)C1)[C@H]1CCC(C)(C)N1n1cc(C(=O)O)c(=O)cc1-2 [Example 50, (R)-12-((3,3-difluorocyclobutyl)methoxy)-11-methoxy-3,3-dimethyl-8-oxo-2,3,8,13b-tetrahydro-1H-pyrido[2,1-a]pyrrolo[1,2-c]phthalazine-7-carboxylic acid] | 1 | > 10000 |  | 
4 | CC1(C)CC[C@@H]2c3cc(OCC4CC(F)(F)C4)c(Cl)cc3-c3cc(=O)c(C(=O)O)cn3N21 [Example 54, (R)-11-chloro-12-((3,3-difluorocyclobutyl)methoxy)-3,3-dimethyl-8-oxo-2,3,8,13b-tetrahydro-1H-pyrido[2,1-a]pyrrolo[1,2-c]phthalazine-7-carboxylic acid] | 0.75 | 5300 |  | 
5 | CC1(C)CC[C@@H]2c3cc(OCCCOC(F)(F)F)c(Cl)cc3-c3cc(=O)c(C(=O)O)cn3N21 [Example 55, (R)-11-chloro-3,3-dimethyl-8-oxo-12-(3-(trifluoromethoxy)propoxy)-2,3,8,13b-tetrahydro-1H-pyrido[2,1-a]pyrrolo[1,2-c]phthalazine-7-carboxylic acid] | 3.7 | 6800 |  | 
6 | COc1cc2c(cc1OCCCOC(F)(F)F)[C@H]1CCC(C)(C)N1n1cc(C(=O)O)c(=O)cc1-2 [Example 58, (R)-11-methoxy-3,3-dimethyl-8-oxo-12-(3-(trifluoromethoxy)propoxy)-2,3,8,13b-tetrahydro-1H-pyrido[2,1-a]pyrrolo[1,2-c]phthalazine-7-carboxylic acid] | 4.8 | 9300 |  | 
7 | COCCCOc1cc2c(cc1Cl)-c1cc(=O)c(C(=O)O)cn1N1C2CCC12CC2 (centres unmarked) [Example 59, 11′-chloro-12′-(3-methoxypropoxy)-8′-oxo-1′,2′,8′,13b′-tetrahydrospiro[cyclopropane-1,3′-pyrido[2,1-a]pyrrolo[1,2-c]phthalazine]-7′-carboxylic acid] | 6 |  | > 10000 | 
8 | COc1cc2c(cc1OCCCOCC(F)(F)F)[C@H]1CCC(C)(C)N1n1cc(C(=O)O)c(=O)cc1-2 [Example 60, (R)-11-methoxy-3,3-dimethyl-8-oxo-12-(3-(2,2,2-trifluoroethoxy)propoxy)-2,3,8,13b-tetrahydro-1H-pyrido[2,1-a]pyrrolo[1,2-c]phthalazine-7-carboxylic acid] | 1.2 | > 10000 |  | 
9 | COc1cc2c(cc1OCCCOc1ccccc1)[C@H]1CCC(C)(C)N1n1cc(C(=O)O)c(=O)cc1-2 [Example 61] | 0.94 | 6000 |  | 
10 | CCOCCCOc1cc2c(cc1OC)-c1cc(=O)c(C(=O)O)cn1N1[C@@H]2CCC1(C)C [Example 62, (R)-12-(3-ethoxypropoxy)-11-methoxy-3,3-dimethyl-8-oxo-2,3,8,13b-tetrahydro-1H-pyrido[2,1-a]pyrrolo[1,2-c]phthalazine-7-carboxylic acid] | 0.67 | > 10000 |  | 
11 | CCc1cc2c(cc1OCCCOC)[C@H]1CCC(C)(C)N1n1cc(C(=O)O)c(=O)cc1-2 [Example 63, (R)-11-Ethyl-12-(3-methoxypropoxy)-3,3-dimethyl-8-oxo-2,3,8,13b-tetrahydro-1H-pyrido[2,1-a]pyrrolo[1,2-c]phthalazine-7-carboxylic acid] | 0.34 | > 10000 |  | 
12 | COc1cc2c(cc1OCCC(C)(C)OC)[C@H]1CCC(C)(C)N1n1cc(C(=O)O)c(=O)cc1-2 [Example 64, (R)-11-methoxy-12-(3-methoxy-3-methylbutoxy)-3,3-dimethyl-8-oxo-2,3,8,13b-tetrahydro-1H-pyrido[2,1-a]pyrrolo[1,2-c]phthalazine-7-carboxylic acid] | 0.84 | > 10000 |  | 
13 | COc1cc2c(cc1OCCCOC(C)(C)C)[C@H]1CCC(C)(C)N1n1cc(C(=O)O)c(=O)cc1-2 [Example 65, (R)-12-(3-(tert-butoxy)propoxy)-11-methoxy-3,3-dimethyl-8-oxo-2,3,8,13b-tetrahydro-1H-pyrido[2,1-a]pyrrolo[1,2-c]phthalazine-7-carboxylic acid] | 0.41 | > 10000 |  | 
14 | CC1(C)CC[C@@H]2c3cc(OCC4COC4)c(C4CC4)cc3-c3cc(=O)c(C(=O)O)cn3N21 [Example 66, (R)-11-cyclopropyl-3,3-dimethyl-12-(oxetan-3-ylmethoxy)-8-oxo-2,3,8,13b-tetrahydro-1H-pyrido[2,1-a]pyrrolo[1,2-c]phthalazine-7-carboxylic acid] | 0.97 | > 10000 |  | 
15 | COCCCOc1c(OC)cc2c(c1F)[C@H]1CCC(C)(C)N1n1cc(C(=O)O)c(=O)cc1-2 [Example 67, (R)-13-fluoro-11-methoxy-12-(3-methoxypropoxy)-3,3-dimethyl-8-oxo-2,3,8,13b-tetrahydro-1H-pyrido[2,1-a]pyrrolo[1,2-c]phthalazine-7-carboxylic acid] | 5.3 | > 10000 |  | 
16 | COc1cc2c(cc1C#Cc1cnc3cccnn13)[C@H]1CCC(C)(C)N1n1cc(C(=O)O)c(=O)cc1-2 [Example 68, (R)-12-(imidazo[1,2-b]pyridazin-3-ylethynyl)-11-methoxy-3,3-dimethyl-8-oxo-2,3,8,13b-tetrahydro-1H-pyrido[2,1-a]pyrrolo[1,2-c]phthalazine-7-carboxylic acid] | 2.9 | > 10000 |  | 
17 | COCCCOc1cc2c(cc1S(C)(=O)=O)-c1cc(=O)c(C(=O)O)cn1N1[C@@H]2CCC1(C)C [Example 69, (R)-12-(3-methoxypropoxy)-3,3-dimethyl-11-(methylsulfonyl)-8-oxo-2,3,8,13b-tetrahydro-1H-pyrido[2,1-a]pyrrolo[1,2-c]phthalazine-7-carboxylic acid] | 52 | > 10000 |  | 
18 | COCc1cc2c(cc1C#CC(C)(C)O)[C@H]1CCC(C)(C)N1n1cc(C(=O)O)c(=O)cc1-2 [Example 70, (R)-12-(3-hydroxy-3-methylbut-1-yn-1-yl)-11-(methoxymethyl)-3,3-dimethyl-8-oxo-2,3,8,13b-tetrahydro-1H-pyrido[2,1-a]pyrrolo[1,2-c]phthalazine-7-carboxylic acid] | 21.1 | > 10000 |  | 
19 | CC(C)(O)C#Cc1cc2c(cc1C1CC1)-c1cc(=O)c(C(=O)O)cn1N1[C@@H]2CCC1(C)C [Example 71, (R)-11-cyclopropyl-12-(3-hydroxy-3-methylbut-1-yn-1-yl)-3,3-dimethyl-8-oxo-2,3,8,13b-tetrahydro-1H-pyrido[2,1-a]pyrrolo[1,2-c]phthalazine-7-carboxylic acid] | 2.5 | > 10000 |  | 
20 | COC(C)(C)C#Cc1cc2c(cc1C1CC1)-c1cc(=O)c(C(=O)O)cn1N1[C@@H]2CCC1(C)C [Example 72, (R)-11-cyclopropyl-12-(3-methoxy-3-methylbut-1-yn-1-yl)-3,3-dimethyl-8-oxo-2,3,8,13b-tetrahydro-1H-pyrido[2,1-a]pyrrolo[1,2-c]phthalazine-7-carboxylic acid] | 0.95 | 6400 |  | 
21 | COCc1cc2c(cc1OCC13CC(C#N)(C1)C3)[C@H]1CCC(C)(C)N1n1cc(C(=O)O)c(=O)cc1-2 [Example 74, (R)-12-((3-cyanobicyclo[1.1.1]pentan-1-yl)methoxy)-11-(methoxymethyl)-3,3-dimethyl-8-oxo-2,3,8,13b-tetrahydro-1H-pyrido[2,1-a]pyrrolo[1,2-c]phthalazine-7-carboxylic acid] | 3.8 | > 10000 |  | 
22 | CC1(C)CC[C@@H]2c3cc(OCc4ccccc4)c(OC(F)(F)F)cc3-c3cc(=O)c(C(=O)O)cn3N21 [Example 75, (R)-12-(benzyloxy)-3,3-dimethyl-8-oxo-11-(trifluoromethoxy)-2,3,8,13b-tetrahydro-1H-pyrido[2,1-a]pyrrolo[1,2-c]phthalazine-7-carboxylic acid] |  | 5000 |  | 6.1
23 | CC1(C)CC[C@@H]2c3cc(-c4cnn(C(F)F)c4)c(Cl)cc3-c3cc(=O)c(C(=O)O)cn3N21 [Example 76, (R)-11-chloro-12-(1-(difluoromethyl)-1H-pyrazol-4-yl)-3,3-dimethyl-8-oxo-2,3,8,13b-tetrahydro-1H-pyrido[2,1-a]pyrrolo[1,2-c]phthalazine-7-carboxylic acid] | 6.3 | 4400 |  | 
24 | COCCCOc1cc2c(cc1C1COC1)-c1cc(=O)c(C(=O)O)cn1N1[C@@H]2CCC1(C)C [Example 77, (R)-12-(3-methoxypropoxy)-3,3-dimethyl-11-(oxetan-3-yl)-8-oxo-2,3,8,13b-tetrahydro-1H-pyrido[2,1-a]pyrrolo[1,2-c]phthalazine-7-carboxylic acid] | 12.5 | > 10000 |  | 
25 | COCCOCc1cc2c(cc1OC)-c1cc(=O)c(C(=O)O)cn1N1[C@@H]2CCC1(C)C [Example 78, (R)-11-methoxy-12-((2-methoxyethoxy)methyl)-3,3-dimethyl-8-oxo-2,3,8,13b-tetrahydro-1H-pyrido[2,1-a]pyrrolo[1,2-c]phthalazine-7-carboxylic acid] | 70 | > 10000 |  | 
